Values of other authors in patent US20060083727A1, “Methods and compositions for the treatment of diseases characterized by calcification and/or plaque formation” (Nanobac Pharmaceuticals, Inc., priority 2004, published 2006).

Tested on: NB/CNP
Conditions: background statement

Molecule	Effect on protective biofilm secreted by NB/CNP	Killing / sensitivity of NB/CNP
O=C(O)CN(CCN(CC(=O)O)CC(=O)O)CC(=O)O [EDTA, Ethylenediaminetetraacetic acid]	can assist in dissolving the protective biofilm	
Penicillin		cannot be killed
